Data set [1] concerns Abeta oligomer-induced membrane trafficking deficits in primary hippocampal neurons. The experiment in a line: Membrane trafficking/exocytosis (MTT) assay. The following applies: read-out: Membrane Trafficking EC50; compound dosed prior to Abeta oligomer addition.
Protocol: Primary hippocampal neurons from E18 Sprague-Dawley rat embryos were plated at optimized concentrations in 384 well plates in NB media (Invitrogen). Neurons were maintained in cultures for 3 weeks, with twice weekly feeding of NB media with N2 supplement (Invitrogen).
MTT reagent (3-(4,5-dimethylthizaol-2yl)-2,5diphenyl tetrazolium bromide) (Roche Molecular Biochemicals) was reconstituted in phosphate buffered saline to 5 mg/mL. 10 μL of MTT labeling reagent is added to each well and incubated at 37° C. for 1 h, then imaged. Exocytosis was assessed by automated microscopy and image processing to quantify the amount of endocytosed and exocytosed formazan.
Each assay plate was formatted so that compounds are tested with and without Abeta oligomer on each plate. […] Reduced formazan was first visible in intracellular vesicles. […] The dye precipitated in the aqueous environment of the culture and formed needle-shaped crystals on the surface of the neuron.
Data set [2] is described as follows: Mouse liver microsome (MLM) stability. It counts as in vitro ADME. The following applies: mouse, microsomes. The method, then: A first pharmacokinetic study was performed in microsomes of mice mouse liver microsomes, MLM) by a commercial contract research organization. The studies were performed according to Obach, R. S et al. (1997) J. Pharmacol. Exp. Ther., 283: 46-58, which is incorporated herein by reference.

Data set [3] has as its system neuronal cultures. Kind of data set: Functional neuronal phenotype in neuronal cultures. The data set is classed as cell-based. The arrangement: key: Antagonist: antagonists (block Abeta signaling); Agonist: agonists (block Abeta signaling with U-shaped dose-response curve and toxicity at high doses); Inactive: inactive (no effect in neuronal cultures).
Protocol: Neuronal cultures are treated with various concentrations of sigma compounds for 24 hours and nuclear intensity compared to vehicle is measured.

One may read the EC50 as the concentration at which the effect is half-maximal. As for `C[C@H](CCc1ccc(O)c(OC(C)(C)C)c1)N1Cc2cccc(F)c2C1` [60B], the EC50 in data set [1] came to 1600 nM. In addition, the “Mouse liver microsomes, MLM t½” value in data set [2] came to 8 min. Further, the neuronal phenotype entry in data set [3] is on record as “Antagonist”.

As to `COc1cc(CCC(C)(C)N2Cc3ccc(S(C)(=O)=O)cc3C2)ccc1O` [compound 77], the EC50 in data set [1] stood at 100 nM. For the same molecule, in data set [2], the “Mouse liver microsomes, MLM t½” value is given as 142 min. Further, the neuronal phenotype result in data set [3] is on record as “Antagonist”.

As for `CC(C)(CCc1ccc(O)c(OC(F)(F)F)c1)N1Cc2cccc(C(=O)N3CCOCC3)c2C1` [compound 94], the “Mouse liver microsomes, MLM t½” value in data set [2] is listed as 14 min.

`CC(C)(CCc1ccc(O)c(Cl)c1)N1Cc2ccc(S(C)(=O)=O)cc2C1` [compound 116]: the EC50 in data set [1] came out at 100000 nM. Further, the neuronal phenotype result in data set [3] is given as “Inactive”.

Turning to `COc1cc(CCC(C)N2Cc3ccc4ccccc4c3C2)ccc1O.Cl` (stereo not drawn) [compound 17], in data set [1], the EC50 was 300 nM. Moreover, in data set [2], the “Mouse liver microsomes, MLM t½” value was determined as 10 min. In addition, the neuronal phenotype entry in data set [3] is on record as “Antagonist”.

For the molecule `CC(C)(CCc1ccc2[nH]ncc2c1)N1Cc2cccc(C(=O)N3CCNCC3)c2C1` [compound 115], in data set [1], the EC50 was 100000 nM. The neuronal phenotype result in data set [3] is reported as “Inactive”.

For `CC(CCc1ccc(Cl)c(Cl)c1)N1Cc2ccc3ccccc3c2C1` (stereo not drawn) [compound 19], in data set [3], the neuronal phenotype entry is “Antagonist”.

Turning to `CC(C)COc1cc(CCC(C)(C)N2Cc3cccc(C(=O)N(C)C)c3C2)ccc1O` [compound 89], the “Mouse liver microsomes, MLM t½” value in data set [2] is listed as 17 min.

`COc1cc(CC[C@@H](C)N2Cc3ccc(C(F)(F)F)cc3C2)ccc1O` [compound 2]: the EC50 in data set [1] is 6700 to 7700 nM. The “Mouse liver microsomes, MLM t½” value in data set [2] came out at 28 min. In addition, the neuronal phenotype result in data set [3] is listed as “Antagonist”.

For `CC(C)(CCc1ccc(O)c(Cl)c1)N1Cc2cccc(F)c2C1` [compound 117], the concentration for a half-maximal effect (EC50) in data set [1] is 1200 nM. Further, the neuronal phenotype result in data set [3] was “Antagonist”.

`C[C@H](CCc1ccc(Cl)c(Cl)c1)N1Cc2cccc(Cl)c2C1.Cl` [compound 16]: in data set [1], the EC50 was greater than 20000 nM. Further, the “Mouse liver microsomes, MLM t½” value in data set [2] amounted to 12 min. The neuronal phenotype entry in data set [3] is reported as “Inactive”.

Turning to `CC(=O)N1CCN(C(=O)c2cccc3c2CN(C(C)(C)CCc2ccc(O)c(OCC(C)C)c2)C3)CC1` [compound 92], in data set [2], the “Mouse liver microsomes, MLM t½” value worked out at 7 min.

For `CC(C)(CCc1ccc(F)cc1)N1Cc2cccc(F)c2C1` [compound 33], the EC50 in data set [1] is 3300 nM. The “Mouse liver microsomes, MLM t½” value in data set [2] was determined as 9 min. The neuronal phenotype result in data set [3] is listed as “Antagonist”.

In the case of `COc1cc(CCC(C)(C)N2Cc3ccc(S(C)(=O)=O)cc3C2)ccc1Cl` [compound 113], the EC50 in data set [1] was 5300 nM. The neuronal phenotype result in data set [3] is on record as “Antagonist”.

Regarding `CC(C)(C#Cc1ccc2[nH]ncc2c1)N1Cc2cccc(C(=O)N3CCNCC3)c2C1` [compound 114], the EC50 in data set [1] came out at 250 nM. Moreover, in data set [3], the neuronal phenotype result is listed as “Neuroactive”.

Take `CC(C)COc1cc(CCC(C)(C)N2Cc3cccc(C(=O)N4CCOCC4)c3C2)ccc1O` [compound 90]: the “Mouse liver microsomes, MLM t½” value in data set [2] came to 9 min.

On to `COc1ccc2c(c1)CN([C@H](C)CCc1ccc(Cl)c(Cl)c1)C2.Cl` [compound 15], for which the half-maximal effective concentration (EC50) in data set [1] stood at 500 nM. Also, the “Mouse liver microsomes, MLM t½” value in data set [2] is 15 min. Also, the neuronal phenotype result in data set [3] is “Inactive”.

In the case of `COc1cc(CCC(C)(C)N2Cc3cccc(F)c3C2)ccc1Cl` [compound 112], the EC50 in data set [1] came out at 260 nM. The neuronal phenotype entry in data set [3] was “Antagonist”.

With `CC(C)COc1cc(CCC(C)(C)N2Cc3cccc(C(=O)N4CCN(C)CC4)c3C2)ccc1O` [compound 91], the “Mouse liver microsomes, MLM t½” value in data set [2] stood at 6 min.

For `CN1CCN(C(=O)c2cccc3c2CN(C(C)(C)CCc2ccc(O)c(OC(F)(F)F)c2)C3)CC1` [compound 93], in data set [2], the “Mouse liver microsomes, MLM t½” value turned out to be 5 min.

On to `COc1ccc(CCC(C)(C)N2Cc3cccc(C(=O)N4CCNCC4)c3C2)cc1Cl` [compound 118], for which the concentration giving a half-maximal response (EC50) in data set [1] stood at 100000 nM. Further, the neuronal phenotype entry in data set [3] is on record as “Inactive”.
